Results from patent publication US10595542B2, “Method for producing Swiss-type cheese” (CSK Food Enrichment B.V., priority 2014, dated 2020).

Legend:
[1] = system: Propionibacteria freudenreichii CSK 1205; assay: MIC value determination, 96 wells microtitre plate; assay type: cell-based, Propionibacterium freudenreichii; settings: strain CSK 1205; SLA medium, 30° C. anaerobically 19-24 hours; average of triplicate
Procedure: (§1) The dairy Propionibacteria that are comprised in the starter culture according to the invention are preferably characterized by having a MIC value of 5 mg or higher, more preferably 10 mg or higher, even more preferably 25 mg or higher, even more preferably 50 mg or higher, most preferably even 100 mg or higher for lacticin 3147 per litre of growth medium. Herein, the term MIC has its common meaning of “minimal inhibitory concentration” and is the lowest concentration of an antimicrobial (in the present case lacticin 3147) that will inhibit the visible growth of a microorganism after overnight incubation. MIC values for lacticin 3147 or other bacteriocins are typically determined according to the following test: Propionibacterium strains are grown from an individual colony for 2-3 nights (SLA, 30° C., anaerobically) until turbid. 3% inoculum is subbed into fresh SLA medium and incubated for approx. 7 hours until OD600 0.5 is reached. Of the resulting culture, 10^5 cfu/ml is inoculated into 96 wells microtitreplates containing fresh SLA medium comprising lacticin 3147, or other bacteriocin, ranging in concentrations from 100 mg/L to 0.01 mg/L (high concentrations to the left, low concentrations to the right). Growth following incubation at 30° C. anaerobically for 19-24 hours is visually evaluated by inspecting turbidity from left to right. MIC values are determined according to the last well where no visible growth is observed (average of triplicate determinations). The above protocol under appropriate growth conditions can be used to obtain MIC values of other strains, e.g. of Lactoabacilli, Clostridia, etc., against lacticin 3147 or other bacteriocins such as nisin. […] At the same time MIC values against nisin were at least 20 times lower.
(§2) MIC values were determined according to a protocol from UCC & Piper et al., J. Antimicrob. Chemother. 2009, 61(3), 546. The protocol was adapted for 96 wells mictrotitre plate screening. Indicator strains Lb. delbrueckii ssp. lactis, C99 (commercially available ex CSK Food Enrichment CV) and Propionibacterium freudenreichii, C21 (commercially available ex CSK Food Enrichment CV) were used. Growth media were MRS for C99, sodium lactate agar (SLA) for C21.
(§3) MIC value determination of propionibacteria against lacticin was performed according to the following procedure: Propionibacterium strains were grown, from an individual colony, for 2-3 nights (SLA, 30 deg C., anaerobically) until turbid. 3% inoculum was subbed into fresh SLA medium and incubated for approx. 7 hours until OD600 0.5 was reached. Of the resulting culture, 10^5 cfu/ml was inoculated into 96 wells microtitreplates containing fresh SLA medium comprising lacticin 3147 ranging in concentrations from 100 mg/L to 0.01 mg/L (high concentrations to the left, low concentrations to the right). Visually evaluated growth following incubation at 30° C. anaerobically for 19-24 hours, by inspecting turbidity from left to right (i.e. starting at the highest lacticin concentrations). MIC values were determined according to the last well where no visible growth is observed (average of triplicate determinations). MIC values against nisin have be obtained similarly.

[2] = system: Propionibacteria freudenreichii CSK code 21; assay: MIC value determination, 96 wells microtitre plate; assay type: cell-based, Propionibacterium freudenreichii; settings: strain CSK code 21; SLA medium, 30° C. anaerobically 19-24 hours; average of triplicate
Procedure: as §1, §2, §3

[3] = system: Propionibacteria freudenreichii DPC 2241; assay: MIC value determination, 96 wells microtitre plate; assay type: cell-based, Propionibacterium freudenreichii; settings: strain DPC 2241; SLA medium, 30° C. anaerobically 19-24 hours; average of triplicate
Procedure: as §1, §2, §3

[4] = system: Propionibacteria freudenreichii DPC 4555; assay: MIC value determination, 96 wells microtitre plate; assay type: cell-based, Propionibacterium freudenreichii; settings: strain DPC 4555; SLA medium, 30° C. anaerobically 19-24 hours; average of triplicate
Procedure: as §1, §2, §3

[5] = system: different strains of C. tyrobutyricum; assay: MIC value determination against C. tyrobutyricum; assay type: cell-based, Clostridium tyrobutyricum
Procedure: The dairy Propionibacteria that are comprised in the starter culture according to the invention are preferably characterized by having a MIC value of 5 mg or higher, more preferably 10 mg or higher, even more preferably 25 mg or higher, even more preferably 50 mg or higher, most preferably even 100 mg or higher for lacticin 3147 per litre of growth medium. Herein, the term MIC has its common meaning of “minimal inhibitory concentration” and is the lowest concentration of an antimicrobial (in the present case lacticin 3147) that will inhibit the visible growth of a microorganism after overnight incubation. MIC values for lacticin 3147 or other bacteriocins are typically determined according to the following test: Propionibacterium strains are grown from an individual colony for 2-3 nights (SLA, 30° C., anaerobically) until turbid. 3% inoculum is subbed into fresh SLA medium and incubated for approx. 7 hours until OD600 0.5 is reached. […] Growth following incubation at 30° C. anaerobically for 19-24 hours is visually evaluated by inspecting turbidity from left to right. MIC values are determined according to the last well where no visible growth is observed (average of triplicate determinations). […]
MIC values were determined according to a protocol from UCC & Piper et al., J. Antimicrob. […]

[6] = system: Lb. delbrueckii ssp. lactis, C99; assay: MIC value determination of Lactobacilli; assay type: cell-based, Lactobacillus delbrueckii; settings: results not shown
Procedure: as §2
MIC value determination of Lactobacilli against lacticin was performed according to the following procedure: Lactobacillus strains were grown, from an individual colony, overnight (MRS, 37 deg C., anaerobically) until turbid. 3% inoculum was subbed into fresh […] medium and incubated for approx. 7 hours until OD600 0.5 was reached. Of the resulting culture, 10^5 cfu/ml was inoculated into 96 wells microtitreplates containing fresh MRS medium comprising lacticin 3147 ranging in concentrations from 100 mg/L to 0.01 mg/L (high concentrations to the left, low concentrations to the right). Visually evaluated growth following incubation at 37° C. anaerobically for 19-24 hours, by inspecting turbidity from left to right (i.e. starting at the highest lacticin concentrations). MIC values were determined according to the last well where no visible growth is observed (average of triplicate determinations).

Row | Substance | MIC [1] [µg/mL] | MIC [2] [µg/mL] | MIC [3] [µg/mL] | MIC [4] [µg/mL] | MIC values [5] [µg/mL] | lacticin 3147 required to inhibit relative to nisin [6]
1 | lacticin 3147 | >50 | >50 | >50 | 8.3 | 0.4 to 2.5 | Approximately 10 times
2 | nisin [reference compound] | 1.25 | 1.25 | 2.5 | 0.039 | 0.03 to 0.1 | –
